Patent publication US8933012B2, “Glycopeptide antibiotic derivative” (priority 2006, dated 2015)
Converted amounts (≈) assume the structure as drawn.

Tests used:
[1] = Single-dose intravenous toxicity screening test in mouse; assay type: in vivo; settings: single intravenous dose 30 mg/kg, compared with corresponding compound having -COOH at the C-terminal
Protocol: The compounds of the invention were tested for water solubility and toxicity.

[2] = tested on: vancomycin-resistant enterococcus E. faecalis SR7914 (VanA); assay: In vitro antimicrobial activity, MIC by microdilution method; assay type: cell-based
Protocol: (§1) In Vitro Assay of Antimicrobial Activity
(§2) For several compounds of the invention, minimal inhibitory concentration (MIC) was determined by the microdilution method using cation adjusted Mueller-Hinton broth well known in the art.

[3] = tested on: methicillin-resistant Staphylococcus aureus S. aureus SR3637 (H-MRSA); assay: as above; assay type: cell-based
Protocol: as §1, §2

SMILES | histological findings in kidney etc. [1] | MIC [2] [µg/mL] | MIC [3] [µg/mL]
CCNNC(=O)C1NC(=O)C2NC(=O)[C@H](NC(=O)[C@@H]3NC(=O)[C@H](CC(N)=O)NC(=O)C(NC(=O)[C@@H](CC(C)C)NC)[C@H](O)c4ccc(c(Cl)c4)Oc4cc3cc(c4OC3O[C@H](CO)[C@@H](O)[C@H](O)[C@H]3OC3C[C@](C)(NCc4cccc(NC(=O)c5ccc(OC(F)(F)F)cc5)c4)[C@H](O)[C@H](C)O3)Oc3ccc(cc3Cl)[C@H]2O)c2ccc(O)c(c2)-c2c(O)cc(O)cc21 (stereo partly drawn) [Example 2] | good histological findings |  | 
CN[C@H](CC(C)C)C(=O)NC1C(=O)N[C@@H](CC(N)=O)C(=O)N[C@H]2C(=O)N[C@H]3C(=O)NC(C(=O)NC(C(=O)NO)c4cc(O)cc(O)c4-c4cc3ccc4O)[C@H](O)c3ccc(c(Cl)c3)Oc3cc2cc(c3OC2O[C@H](CO)[C@@H](O)[C@H](O)[C@H]2OC2C[C@](C)(NCCC3CCN(C(=O)Nc4ccc(OC(F)(F)F)cc4)CC3)[C@H](O)[C@H](C)O2)Oc2ccc(cc2Cl)[C@H]1O (stereo partly drawn) [Example 4] |  | 4 (≈ 2.25 µM) | 0.5 (≈ 0.281 µM)
